pIC50, pKi: −log10 of the molar value.
Key:
Butyrylcholinesterase = Butyrylcholinesterase (Equus caballus, UniProt Q9N1N9)
Description: Dissociation constant for inhibition of equine Butyrylcholinesterase (BuChE)

[1] = Inhibitory ratio for bovine acetylcholinesterase and equine butyrylcholinesterase
Acetylcholinesterase [2] = target: T1, Acetylcholinesterase (Bos taurus, UniProt P23795)
T1 sequence (P23795 whole entry): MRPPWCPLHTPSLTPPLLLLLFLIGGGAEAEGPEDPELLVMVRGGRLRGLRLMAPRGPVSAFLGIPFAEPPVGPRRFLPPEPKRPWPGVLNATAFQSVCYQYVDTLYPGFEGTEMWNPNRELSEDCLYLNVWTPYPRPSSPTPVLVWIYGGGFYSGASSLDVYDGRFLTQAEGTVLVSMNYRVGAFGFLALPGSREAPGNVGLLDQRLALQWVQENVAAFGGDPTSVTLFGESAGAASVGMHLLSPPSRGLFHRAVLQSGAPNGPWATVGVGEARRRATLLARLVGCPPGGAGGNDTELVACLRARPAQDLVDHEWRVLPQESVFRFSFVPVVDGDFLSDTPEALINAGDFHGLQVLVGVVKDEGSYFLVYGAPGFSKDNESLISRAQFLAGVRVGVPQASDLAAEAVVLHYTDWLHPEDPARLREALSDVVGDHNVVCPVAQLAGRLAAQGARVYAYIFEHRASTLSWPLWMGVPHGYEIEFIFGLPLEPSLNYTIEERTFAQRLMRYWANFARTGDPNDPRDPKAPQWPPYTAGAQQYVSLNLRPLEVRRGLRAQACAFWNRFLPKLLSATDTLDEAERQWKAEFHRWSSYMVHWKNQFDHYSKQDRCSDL
Description: Dissociation constant for inhibition of fetal bovine serum Acetylcholinesterase

Cholinesterase = Cholinesterase (Homo sapiens, UniProt P06276); test: Inhibitory concentration against human butyrylcholinesterase
Acetylcholinesterase [3] = target: Acetylcholinesterase (Homo sapiens, UniProt P22303); test: Inhibitory concentration against human Acetylcholinesterase
Sequence of Acetylcholinesterase (Homo sapiens, UniProt P22303) (P22303 whole entry): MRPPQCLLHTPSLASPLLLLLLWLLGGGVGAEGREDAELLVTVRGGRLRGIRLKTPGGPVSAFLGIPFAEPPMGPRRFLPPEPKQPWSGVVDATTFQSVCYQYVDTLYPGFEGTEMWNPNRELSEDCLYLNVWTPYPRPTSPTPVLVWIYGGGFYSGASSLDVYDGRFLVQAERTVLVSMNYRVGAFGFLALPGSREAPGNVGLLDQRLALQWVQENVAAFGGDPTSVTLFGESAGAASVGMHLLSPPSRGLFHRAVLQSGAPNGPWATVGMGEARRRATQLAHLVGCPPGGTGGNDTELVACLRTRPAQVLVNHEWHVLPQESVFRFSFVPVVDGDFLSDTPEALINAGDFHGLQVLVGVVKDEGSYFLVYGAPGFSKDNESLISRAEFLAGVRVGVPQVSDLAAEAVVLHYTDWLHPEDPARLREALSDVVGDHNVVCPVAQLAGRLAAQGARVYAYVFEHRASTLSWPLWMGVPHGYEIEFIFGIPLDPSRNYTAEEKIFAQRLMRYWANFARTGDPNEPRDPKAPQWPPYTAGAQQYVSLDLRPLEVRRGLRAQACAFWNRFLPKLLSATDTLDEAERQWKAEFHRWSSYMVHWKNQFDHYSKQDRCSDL

Sequence of Butyrylcholinesterase (Q9N1N9 whole entry): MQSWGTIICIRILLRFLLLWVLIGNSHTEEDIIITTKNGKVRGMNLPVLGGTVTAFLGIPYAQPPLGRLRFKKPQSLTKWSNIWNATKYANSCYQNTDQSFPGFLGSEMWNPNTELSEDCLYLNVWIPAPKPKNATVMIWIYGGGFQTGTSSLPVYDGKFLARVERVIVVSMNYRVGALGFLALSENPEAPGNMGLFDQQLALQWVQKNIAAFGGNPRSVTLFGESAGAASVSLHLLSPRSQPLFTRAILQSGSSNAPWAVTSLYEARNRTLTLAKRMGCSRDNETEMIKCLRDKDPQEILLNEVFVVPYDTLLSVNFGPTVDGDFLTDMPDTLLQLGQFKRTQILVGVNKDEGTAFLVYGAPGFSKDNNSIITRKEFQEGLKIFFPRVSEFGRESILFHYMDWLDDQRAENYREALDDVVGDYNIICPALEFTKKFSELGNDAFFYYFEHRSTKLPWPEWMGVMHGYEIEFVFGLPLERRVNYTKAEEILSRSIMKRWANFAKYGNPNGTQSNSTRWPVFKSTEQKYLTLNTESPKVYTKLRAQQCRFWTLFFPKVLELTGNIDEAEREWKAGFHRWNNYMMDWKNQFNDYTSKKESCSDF
Sequence of Cholinesterase (P06276 whole entry): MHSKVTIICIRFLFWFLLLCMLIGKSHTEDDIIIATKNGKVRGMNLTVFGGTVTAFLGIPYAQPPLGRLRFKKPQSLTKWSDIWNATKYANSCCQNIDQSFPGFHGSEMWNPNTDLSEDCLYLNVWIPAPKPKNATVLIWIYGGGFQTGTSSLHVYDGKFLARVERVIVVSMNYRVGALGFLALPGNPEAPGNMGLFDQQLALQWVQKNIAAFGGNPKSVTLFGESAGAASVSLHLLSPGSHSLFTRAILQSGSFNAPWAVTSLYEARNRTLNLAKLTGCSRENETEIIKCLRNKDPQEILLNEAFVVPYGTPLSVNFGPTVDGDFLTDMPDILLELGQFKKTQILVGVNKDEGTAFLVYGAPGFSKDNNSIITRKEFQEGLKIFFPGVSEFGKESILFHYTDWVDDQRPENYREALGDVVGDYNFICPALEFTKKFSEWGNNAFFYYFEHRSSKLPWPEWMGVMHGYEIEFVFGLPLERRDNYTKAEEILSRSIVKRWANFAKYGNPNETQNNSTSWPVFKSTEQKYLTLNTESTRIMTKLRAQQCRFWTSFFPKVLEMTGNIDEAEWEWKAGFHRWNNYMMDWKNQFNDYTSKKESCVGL

| Compound | pKi (Butyrylcholinesterase) | Ratio [1] | pKi (Acetylcholinesterase [2]) | pIC50 (Cholinesterase) | pIC50 (Acetylcholinesterase [3]) |
| --- | --- | --- | --- | --- | --- |
| c1ccc2c(NCCCCCNc3c4c(nc5ccccc35)CCCC4)c3c(nc2c1)CCCC3 | 7.00 | 2.1 | 6.68 | – | – |
| OCCN(CCCNc1c2c(nc3ccccc13)CCCC2)CCCNc1c2ccccc2nc2ccccc12 | 8.48 | 0.2 | 9.19 | – | – |
| c1ccc2c(NCCCCCCCSc3c4c(nc5ccccc35)CCCC4)c3c(nc2c1)CCCC3 | – | 9.7 | – | – | – |
| C=CCN(CCCNc1c2c(nc3ccccc13)CCCC2)CCCNc1c2ccccc2nc2ccccc12 | 9.12 | 2.1 | 8.80 | – | – |
| CCN(CC)C(C)CN1c2ccccc2Sc2ccccc21 (stereo not given) [ETHOPROPAZINE] | 7.70 | – | – | – | – |
| c1ccc2c(NCCCCCCCCSc3c4c(nc5ccccc35)CCCC4)c3c(nc2c1)CCCC3 | – | 625 | – | 9.11 | – |
| CN(CCCNc1c2c(nc3ccccc13)CCCC2)CCCSc1c2c(nc3ccccc13)CCCC2 | 8.38 | 2.2 | 8.04 | – | – |
| CC(=O)N(CCCNc1c2c(nc3ccccc13)CCCC2)CCCSc1c2c(nc3ccccc13)CCCC2 | 9.64 | 217 | 7.30 | – | – |
| CC(=O)N(CCCCSc1c2c(nc3ccccc13)CCCC2)CCCNc1c2c(nc3ccccc13)CCCC2 | 9.96 | 427 | 7.33 | – | – |
| CC(=O)N(CCCNc1c2c(nc3ccccc13)CCCC2)CCCNc1c2ccccc2nc2ccccc12 | 8.70 | 750 | 5.82 | 8.41 | – |
| c1ccc2c(NCCCCCCCCCSc3c4c(nc5ccccc35)CCCC4)c3c(nc2c1)CCCC3 | 8.64 | 86 | 6.71 | – | – |
| CN(CCCCSc1c2c(nc3ccccc13)CCCC2)CCCNc1c2c(nc3ccccc13)CCCC2 | 9.17 | 191 | 6.89 | – | – |
| CN(CCCNc1c2c(nc3ccccc13)CCCC2)CCCNc1c2c(nc3ccccc13)CCCC2 | – | 0.01 | – | 7.98 | 9.52 |

— ChEMBL document CHEMBL1142727 (J Med Chem, 2005)
